Assay results from patent publication US12310944B2 (priority 2019, dated 2025).
Like-named read-outs stand apart in the source and are kept apart here.

Legend:
[1] = target: T1, eqBuChE (BuChE, E.C.3.1.1.8, selected from horse serum) (Equus caballus, UniProt P81908); test: Cholinesterase inhibitory activity (DTNB/BTC), eqBuChE; type: biochemical
T1 construct: BuChE (E.C.3.1.1.8, selected from horse serum); purchased Sigma; host or cells: horse serum
Source text: Determination of Cholinesterase Inhibitory Activity:
Drugs and reagents: Test compounds, AChE (E.C.3.1.1.7, Type VI-S, selected from electric eel), BuChE (E.C.3.1.1.8, selected from horse serum), 5,5′-dithiobis(2-nitrobenzoic acid) (DTNB), acetylthiocholine (ATC) iodide and butyrylthiocholine (BTC) iodide were all purchased from Sigma; the positive control tacrine hydrochloride (9-amino-1,2,3,4-tetrahydroacridine hydrochloride hydrate) was purchased from BioTrend.
(§1) Instrument: THERMO Varioskan Flash full-wavelength multifunctional microplate reader.
(1) Formulation of buffer: 13.6 g of potassium dihydrogen phosphate was dissolved in 1 L of water, and pH was adjusted with potassium hydroxide to reach pH=8±0.1. The solution was stored at 4° C. for later use.
(2) Formulation of 0.01 M DTNB solution: 0.396 g of DTNB and 0.15 g of sodium bicarbonate were dissolved in 100 mL of water to prepare a 0.01 M DTNB solution, which was stored at −30° C. for later use.
(3) Formulation of 0.075 M ATC and BTC solutions: 0.217 g of ATC was dissolved in 10 mL of water to prepare a 0.075 M ATC solution, which was stored at −30° C. for later use; 0.237 g of BTC was dissolved in 10 mL of water to prepare a 0.075 M BTC solution, which was stored at −30° C. for later use.
(4) Formulation of AChE and BuChE solutions: 5,000 units of AChE were dissolved in 1 mL of 1% gel solution, and then diluted to 100 mL with water to prepare a AChE solution with a concentration of 5 units/mL, which was stored at −30° C. for later use; 5,000 units of BuChE were dissolved in 1 mL of 1% gel solution, and then diluted to 100 mL with water to prepare a BuChE solution with a concentration of 5 units/mL, which was stored at −30° C. for later use.
(5) Formulation of test substance solution: The test compound was dissolved in ethanol to obtain a solution with a concentration of 10^−3 M (ethanol would not affect the test results), and then diluted with water to prepare solutions with concentrations of […], 10^−5, 10^−6, 10^−7, 10^−8, 10^−9, and 10^−10 M, respectively.
Before the start of the experiment, all the solutions as used were warmed to room temperature, and the AChE and BuChE solutions were diluted 1-fold with water to prepare an enzyme solution with a concentration of 2.5 units/mL. The background UV absorbance was measured with a blank buffer (3 mL) as a subtraction value. Firstly, 100 μL of test compound solution, 100 μL of DTNB solution, and 100 μL of enzyme solution were added to 3 mL of buffer. After adding 20 μL of ATC or BTC solution to trigger the reaction, the time was recorded immediately and the test solution was mixted quickly and uniformly at the same time. After 2 minutes, the UV absorbance was measured at a wavelength of […]. The blank control group was measured with an equal volume of water instead of the test substance solution. All tests were performed three times in parallel. The UV absorption value of the blank control group was taken as 100%, the absorbance (OD value) of the test compound at each concentration was recorded, and GraphPad Prism™ (GraphPad Software, San Diego, CA, USA) software was used to analyze the results in a non-linear regression analysis model to calculate the corresponding IC50 values, as shown in Table 1.

[2] = target: hBuChE (Homo sapiens, UniProt P06276); test: Cholinesterase inhibitory activity (DTNB/BTC), hBuChE; type: biochemical; details: mean ± SEM
[3] = tested on: PC-12 neural cell line; test: Toxicity test in PC-12 nerve cell (MTT); type: cell-based; details: PC-12 cells; for SR(%) cell survival rate, 20 μM: 20 μM compound for 24 h; for SR(%) cell survival rate, 50 μM: 50 μM compound for 24 h
Experimental: Toxicity Test in PC-12 Nerve Cell:
Drugs and reagents: Test compounds, DMEM medium (01-050-1A) purchased from Biological Industries, FBS fetal bovine serum (04-001-1A) purchased from Biological Industries, MTT thiazolyl blue reagent (KGT525500) purchased from KeyGEN BioTECH.
as §1
About 3×10^3 PC-12 cells were evenly mixed in 0.1 mL of DMEM medium containing 10% FBS, and plated on a 96-well bottom plate, and incubated overnight at 37° C. in an environment containing 5% CO2. The 20 μM and 50 μM compounds diluted in 0.1 mL of DMEM medium were treated on the cells for 24 hours. Then MTT reagent was added to the well plate, and the plate was incubated at 37° C. for 2 to 4 hours. The color reaction was measured at 492 nm using a spectrophotometer (Thermo, multiskan FC).

[4] = read-out: IC50 (nM) ± SEM eqBuChE
[5] = eqBuChE, mean ± SEM, three parallel tests

T1 sequence (P81908 whole entry): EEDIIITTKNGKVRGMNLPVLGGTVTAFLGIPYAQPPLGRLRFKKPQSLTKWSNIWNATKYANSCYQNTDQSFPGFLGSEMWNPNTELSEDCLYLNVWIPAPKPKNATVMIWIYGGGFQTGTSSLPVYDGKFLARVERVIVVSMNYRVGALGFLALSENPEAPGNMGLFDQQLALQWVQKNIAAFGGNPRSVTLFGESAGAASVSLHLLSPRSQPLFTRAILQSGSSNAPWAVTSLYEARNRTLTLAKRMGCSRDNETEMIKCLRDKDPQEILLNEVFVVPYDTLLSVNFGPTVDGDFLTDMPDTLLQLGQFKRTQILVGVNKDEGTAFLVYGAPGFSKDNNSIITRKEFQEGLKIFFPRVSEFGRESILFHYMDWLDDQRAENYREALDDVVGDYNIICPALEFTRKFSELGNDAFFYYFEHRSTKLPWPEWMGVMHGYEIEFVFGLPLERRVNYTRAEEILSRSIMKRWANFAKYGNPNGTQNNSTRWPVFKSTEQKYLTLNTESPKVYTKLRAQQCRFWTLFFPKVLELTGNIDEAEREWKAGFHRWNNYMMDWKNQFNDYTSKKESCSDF

SMILES	IC50 [1, 4] [nM]	IC50 [2] [nM]	SR(%) cell survival rate, 20 μM [3] [%]	SR(%) cell survival rate, 50 μM [3] [%]	IC50 [1, 5] [nM]	inhibition at 10 µM ([1]; read-out: inhibition rate of the compound on the target at a concentration of 10 μM (eqBuChE)) [%]
CCN(CC)Cc1ccccc1CNC(=O)c1cccc(NC(=O)c2nccs2)c1 [Compound 8, N-(3-((2-((diethylamino)methyl)benzyl)carbamoyl)phenyl)-thiazole-2-carboxamide]	0.75 ± 0.14	1.88 ± 0.52	93.57	89.42		
CCN(CC)Cc1ccccc1CNC(=O)c1cccc(NC(=O)c2ccc(F)cc2)c1 [Compound 15, N-(2-((diethylamino)methyl)benzyl)-3-(4-fluorobenzamido)benzamide]		1.44 ± 1.66	93.57	84.35	0.15 ± 0.06	
CCN(CC)Cc1ccccc1CNC(=O)c1cccc(NC(=O)C2CCCCC2)c1 [Compound 10, 3-(cyclohexanecarboxamido)-N-(2-((diethylamino)methyl)benzyl)benzamide]	122 ± 15.4		90.23	83.22		
CCN(CC)Cc1ccccc1CNC(=O)c1cccc(NC(=O)c2ccc(C(=O)O)cc2)c1 [Compound 13, 4-((3-((2-((diethylamino)methyl)benzyl)carbamoyl)phenyl)carbamoyl)benzoic acid]	0.76 ± 0.09	3.4 ± 0.31	91.46	75.25		
CCCN(CCC)Cc1ccccc1CNC(=O)c1cccc(NC(=O)c2cccs2)c1 [Compound 35, N-(3-((2-((dipropylamino)methyl)benzyl)carbamoyl)phenyl)thiophene-2-carboxamide]		0.89 ± 0.67	92.58	84.86	0.45 ± 0.04	
CCN(CC)Cc1ccccc1CNC(=O)c1cccc(NC(=O)c2ccccc2)c1 [Compound 11, 3-benzamido-N-(2-((diethylamino)methyl)benzyl)benzamide]	0.48 ± 0.07	0.99 ± 0.18	96.30	83.4		
O=C(NCc1ccccc1)c1cccc(NC(=O)c2cccs2)c1 [Compound 36]			89.57	77.42		27.2
CCN(CC)Cc1ccccc1CNC(=O)c1cccc(NC(=O)c2ccc(C(F)(F)F)cc2)c1 [Compound 25]	0.38 ± 0.1	1.41 ± 0.01	97.58	91.57		
CCN(CC)Cc1ccccc1CNC(=O)c1cccc(NC(=O)c2ccc(C(C)=O)cc2)c1 [Compound 30]		24 ± 1.52	91.86	72.56	6.63 ± 0.66	
CCN(CC)Cc1ccccc1CNC(=O)c1cccc(NC(=O)c2ccc(F)c(F)c2)c1 [Compound 16]	0.3 ± 0.07	0.57 ± 0.1	95.72	89.53		
CCN(CC)Cc1ccccc1NC(=O)c1cccc(NC(=O)c2cccs2)c1 [Compound 3, N-(3-((2-((diethylamino)methyl)phenyl)carbamoyl)phenyl)thiophene-2-carboxamide]			95.23	89.64	481 ± 110	
CCN(CC)Cc1ccccc1CNC(=O)c1cccc(NC(=O)c2ccc(I)cc2)c1 [Compound 21, 3-(4-iodobenzamido)-N-(2-((diethylamino)methyl)benzyl)benzamide]	1.59 ± 0.26	3.33 ± 1.62	94.40	89.63		
CCN(CC)Cc1ccc(CNC(=O)c2cccc(NC(=O)c3cccs3)c2)cc1 [Compound 38, N-(3-((4-((diethylamino)methyl)benzyl)carbamoyl)phenyl)thiophene-2-carboxamide]	24.7 ± 10.6	75 ± 22.9	93.67	84.23		
CCN(CC)Cc1ccccc1CNC(=O)c1cccc(NC(=O)c2ccc(Cl)cc2)c1 [Compound 19, 3-(4-chlorobenzamido)-N-(2-((diethylamino)methyl)benzyl)benzamide]	0.34 ± 0.21	0.83 ± 0.39	90.43	79.24		
CCN(CC)Cc1ccccc1CNC(=O)c1cccc(NC(=O)c2cccs2)c1 [Compound 1, N-(3-((2-((diethylamino)methyl)benzyl)carbamoyl)phenyl)thiophene-2-carboxamide]		0.42 ± 0.07	97.36	84.34	0.13 ± 0.01	
CCN(CC)Cc1ccccc1CNC(=O)c1cccc(NC(=O)c2ccccc2OC)c1 [Compound 28]	5.28 ± 1.21	20 ± 2.06	95.42	85.46		
CCN(CC)Cc1ccccc1CNC(=O)c1cccc(NC(=O)c2ccc(Br)cc2)c1 [Compound 20, 3-(4-bromobenzamido)-N-(2-((diethylamino)methyl)benzyl)benzamide]	0.98 ± 0.62	1.91 ± 0.59	94.00	85.21		
CN(C)Cc1ccccc1NC(=O)c1cccc(NC(=O)c2cccs2)c1 [Compound 2, N-(3-((2-((dimethylamino)methyl)phenyl)carbamoyl)phenyl)thiophene-2-carboxamide]			94.30	91.45	1910 ± 983	
CCCN(CCC)Cc1ccccc1NC(=O)c1cccc(NC(=O)c2cccs2)c1 [Compound 4, N-(3-((2-((dipropylamino)methyl)phenyl)carbamoyl)phenyl)thiophene-2-carboxamide]	122 ± 285		87.24	79.48		
